Activity calls are given as the source filed them. No cut-off for these calls is given here.
How the values were obtained:
Mus musculus [1] = assay: Anticonvulsant activity in albino CF1 mouse assessed as protection against 44 mA current-induced seizures at 100 mg/kg, ip measured after 1 hr; format: functional, organism-based; set-up: dose 100 mg/kg
[2] = Neurotoxicity in ip dosed Sprague-Dawley rat; format: toxicity, organism-based; settings: in vivo
Mus musculus [3] = assay: Neurotoxicity in albino CF1 mouse at 100 mg/kg, ip measured after 0.25 hr; format: toxicity, organism-based; set-up: dose 100 mg/kg, route intraperitoneal; settings: in vivo
Mus musculus [4] = assay: Anticonvulsant activity in ip dosed albino CF1 mouse assessed as protection against maximal electroshock-induced seizures measured as time to peak effect; format: functional
[5] = Protective index, ratio of TD50 for neurotoxicity in ip dosed albino CF1 mouse to ED50 for anticonvulsant activity in ip dosed MES albino CF1 mouse model; format: toxicity, organism-based; settings: in vivo, read-out: Ratio TD50/ED50
Mus musculus [6] = assay: Anticonvulsant activity in ip dosed corneal kindled albino CF1 mouse seizure model assessed as time to peak effect; format: functional
Rattus norvegicus [7] = assay: Anticonvulsant activity in Sprague-Dawley rat assessed as protection against maximal electroshock-induced seizures at 30 mg/kg, ip measured after 1 hr; format: functional, organism-based; set-up: dose 30 mg/kg
Mus musculus [8] = assay: Neurotoxicity in 32 mA current-induced seizure albino CF1 mouse model at 100 mg/kg, ip measured after 0.25 hr; format: toxicity, organism-based; set-up: dose 100 mg/kg, route intraperitoneal; settings: in vivo
Mus musculus [9] = assay: Neurotoxicity in 32 mA current-induced seizure albino CF1 mouse model at 100 mg/kg, ip measured after 2 hrs; format: toxicity, organism-based; set-up: dose 100 mg/kg, route intraperitoneal; settings: in vivo
Rattus norvegicus [10] = assay: Neurotoxicity in MES Sprague-Dawley rat model at 30 mg/kg, po measured after 0.25 hr; format: toxicity, organism-based; set-up: dose 30 mg/kg, route oral; settings: in vivo
Rattus norvegicus [11] = assay: Anticonvulsant activity in Sprague-Dawley rat assessed as protection against maximal electroshock-induced seizures at 30 mg/kg, po measured after 0.5 hr; format: functional, organism-based; set-up: dose 30 mg/kg
Mus musculus [12] = assay: Neurotoxicity in albino CF1 mouse at 100 mg/kg, ip measured after 0.5 hr; format: toxicity, organism-based; set-up: dose 100 mg/kg, route intraperitoneal; settings: in vivo
Mus musculus [13] = assay: Anticonvulsant activity in albino CF1 mouse assessed as protection against 44 mA current-induced seizures at 100 mg/kg, ip measured after 0.5 hr; format: functional, organism-based; set-up: dose 100 mg/kg
Rattus norvegicus [14] = assay: Anticonvulsant activity in Sprague-Dawley rat assessed as protection against maximal electroshock-induced seizures at 30 mg/kg, po measured after 4 hrs; format: functional, organism-based; set-up: dose 30 mg/kg
Rattus norvegicus [15] = assay: Neurotoxicity in MES Sprague-Dawley rat model at 30 mg/kg, ip measured after 0.25 hr; format: toxicity, organism-based; set-up: dose 30 mg/kg, route intraperitoneal; settings: in vivo
Mus musculus [16] = assay: Anticonvulsant activity in albino CF1 mouse assessed as protection against 32 mA current-induced seizures at 100 mg/kg, ip measured after 1 hr; format: functional, organism-based; set-up: dose 100 mg/kg
Mus musculus [17] = assay: Anticonvulsant activity in albino CF1 mouse assessed as protection against maximal electroshock-induced seizures at 100 mg/kg, ip measured after 0.5 hr; format: functional, organism-based; set-up: dose 100 mg/kg
Rattus norvegicus [18] = assay: Neurotoxicity in MES Sprague-Dawley rat model at 30 mg/kg, ip measured after 2 hrs; format: toxicity, organism-based; set-up: dose 30 mg/kg, route intraperitoneal; settings: in vivo
Mus musculus [19] = assay: Anticonvulsant activity in albino CF1 mouse assessed as protection against maximal electroshock-induced seizures at 100 mg/kg, ip measured after 0.25 hr; format: functional, organism-based; set-up: dose 100 mg/kg
Rattus norvegicus [20] = assay: Anticonvulsant activity in ip dosed Sprague-Dawley rat assessed as protection against subcutaneous metrazol-induced seizures; format: functional
Mus musculus [21] = assay: Anticonvulsant activity in albino CF1 mouse assessed as protection against iv infusion metrazol-induced seizures measured as weight at 79 mg/kg, ip (reference value: 26.75 grams); format: functional
Mus musculus [22] = assay: Anticonvulsant activity in ip dosed albino CF1 mouse assessed as protection against 6 Hz current-induced seizures measured as time to peak effect; format: functional
Mus musculus [23] = assay: Anticonvulsant activity in albino CF1 mouse assessed as protection against iv infusion metrazol-induced seizures measured as weight at 24 mg/kg, ip (reference value: 26.75 grams); format: functional
Rattus norvegicus [24] = assay: Anticonvulsant activity in ip dosed Sprague-Dawley rat assessed as protection against maximal electroshock-induced seizures; format: functional
Mus musculus [25] = assay: Anticonvulsant activity in ip dosed albino CF1 mouse assessed as protection against subcutaneous metrazol-induced seizures; format: functional
Mus musculus [26] = assay: Neurotoxicity in 44 mA current-induced seizure albino CF1 mouse model at 100 mg/kg, ip measured after 4 hrs; format: toxicity, organism-based; set-up: dose 100 mg/kg, route intraperitoneal; settings: in vivo
Mus musculus [27] = assay: Anticonvulsant activity in albino CF1 mouse assessed as protection against 32 mA current-induced seizures at 100 mg/kg, ip measured after 4 hrs; format: functional, organism-based; set-up: dose 100 mg/kg
Mus musculus [28] = assay: Anticonvulsant activity in albino CF1 mouse assessed as protection against 32 mA current-induced seizures at 100 mg/kg, ip measured after 2 hrs; format: functional, organism-based; set-up: dose 100 mg/kg
Mus musculus [29] = assay: Anticonvulsant activity in albino CF1 mouse assessed as protection against iv infusion metrazol-induced seizures measured as clonus at 79 mg/kg, ip (reference value: 31.1 mg/kg); format: functional
Mus musculus [30] = assay: Anticonvulsant activity in albino CF1 mouse assessed as protection against 44 mA current-induced seizures at 100 mg/kg, ip measured after 0.25 hr; format: functional, organism-based; set-up: dose 100 mg/kg

For `O=C1NC(=O)[C@@H]2CCCN2[C@H]1c1cccc(OC(F)(F)F)c1`, the Activity (Mus musculus [1]) was “Active”, the TD50 [2] was 114 µmol/kg and the Activity (Mus musculus [3]) was “Toxic”. It also gave a Time (Mus musculus [4]) of 0.25 h, a selectivity ratio [5] of 3.2 and a Time (Mus musculus [6]) of 0.25 h. The Activity (Rattus norvegicus [7]) was “Active”, the Activity (Mus musculus [8]) was “Toxic” and the Activity (Mus musculus [9]) was “Non-toxic”. The Activity (Rattus norvegicus [10]) was “Non-toxic”, the Activity (Rattus norvegicus [11]) was “inactive” and the Activity (Mus musculus [12]) was “Toxic”. For the same compound, the Activity (Mus musculus [13]) was “Active”, the Activity (Rattus norvegicus [14]) was “inactive” and the Activity (Rattus norvegicus [15]) was “Non-toxic”. For the same compound, the Activity (Mus musculus [16]) was “Active”, the Activity (Mus musculus [17]) was “Active” and the Activity (Rattus norvegicus [18]) was “Non-toxic”. For the same compound, the Activity (Mus musculus [19]) was “Active”, the ED50 (Rattus norvegicus [20]) was 41 µmol/kg and the Activity (Mus musculus [21]) was 27.6 g. The Time (Mus musculus [22]) was 0.25 h, the Activity (Mus musculus [23]) was 26.8 g and the ED50 (Rattus norvegicus [24]) was 40 µmol/kg. The ED50 (Mus musculus [25]) was 200 µmol/kg, the Activity (Mus musculus [26]) was “Non-toxic” and the Activity (Mus musculus [27]) was “inactive”. The Activity (Mus musculus [28]) was “inactive”, the Activity (Mus musculus [29]) was 97.2 mg/kg and the Activity (Mus musculus [30]) was “Active”.
